According to patent US20250163522A1, “METHODS FOR PRESERVING HEALTHY INTESTINAL MICROBIOME DURING GROWTH PROMOTER ADMINSTRATION” (BIOMEDIT, LLC, priority 2022, published 2025):
Entries after “also recorded” stand apart in the source; their conditions may differ.

How the values were obtained:
[1] = tested on: AMR genes in the cecum microbiome; assay: AMR gene abundance analysis (AMR++ pipeline) of cecal microbiome; assay type: in vivo, chickens (Gallus gallus); conditions: day 35 cecum
Procedure: AMR gene abundances per sample were determined using the AMR++ pipeline (Lakin, S. M. et al., Nucleic Acids Res 45, D574-D580 (2017)) (v. 2.0.2) starting from the raw metagenomics sequences and using the MegaRes (v. 2.0.0) database. Only genes involved in drug resistance were considered. The AMR gene counts per sample obtained from AMR++ were expressed in unites of reads per kilobase per million reads (RPKM) based on the corresponding gene lengths from the MegaRes database. RPKM values across treatments were compared using the Mann-Whitney U test.

[2] = tested on: cecal microbiome; assay: Shotgun metagenomics (functional/taxonomic profiles, GSEA) of cecal microbiome, day 35 broilers; assay type: in vivo, chickens (Gallus gallus); conditions: day 35 cecal samples
Procedure: 74 frozen cecal samples from day 35 birds were sent to CosmosID (Rockville, MD) for shotgun metagenomics sequencing. DNA was extracted using the ZymoBIOMICS DNA Miniprep Kit (ZymoBIOMICS, Irvine, CA) according to the manufacturers protocol. The isolated DNA was quantified by Qbit (ThermoFisher, Coon Rapids, MN). DNA libraries were prepared using the Illumina Nextera XT library preparation kit (Illumina, San Diego, CA), with a modified protocol. Libraries were then sequenced on an Illumina HiSeq platform 2×150 bp.
Reads were trimmed and Illumina adapters removed using Trimmomatic (v 0.39) (Bolger et al., Bioinformatics 30, 2114-2120 (2014)) with options SLIDINGWINDOW:5:20 LEADING:3 TRAILING:3. Host reads (Gallus gallus, GenBank assembly GCA_000002315) and spike-in reads from Vibrio harveyii (ATCC 14126) were removed using Bowtie2 (v. 2.3.5.1) (Langmead et al., Nat Methods 9, 357-359 (2012)).
Taxonomic profiling of individual reads was carried out using Kaiju (v. 1.7.3) (Menzel et al., Nat Commun 7, 11257 (2016)) with the nr_euk database. Kaiju outputs were summarized for each read as the number of bases aligned to proteins in the reference database. In cases of individual reads mapping to more than one taxonomic group, the number of bases assigned to each taxon was calculated as the alignment length (in base pairs) multiplied by the fraction of bases assigned unambiguously to said taxon out of all the taxa to which the read mapped. The numbers of assigned bases per read were used to estimate species-level relative abundances using metametamerge (v. 1.1) (Piro, V. C., et al., Microbiome 5, 101 (2017).) taking into account the average coding length per species in the nr_euk database.
Functional profiling was done by first assembling the reads from each sample into contigs using Spades (v. 3.13.1, option --meta) (Nurk, S. et al., Genome Res 27, 824-834 (2017)), with default parameters, followed by protein prediction with Prokka (v. 1.14.5) (Seemann, T. Prokka: Bioinformatics 30, 2068-2069 (2014).). Predicted protein sequences were aligned to a reference database and using Diamond (v. 0.9.30) (Buchfink, B. et al. Nat Methods 18, 366-368 (2021)) and annotated based on the function assigned to the top hit in the database. To avoid misannotations, (Plata, G. et al. Nat Chem Biol 8, 848-854 (2012)) the inventors only considered hits with at least 70% identity and 70% query coverage. The reference database was built starting from 46,181 complete bacterial genomes downloaded from the PATRIC (Davis, J. J. et al. Nucleic Acids Res 48, D606-D612 (2020)) database representing at most 10 genomes per species from ˜400 taxonomic families including those most frequently observed in broiler microbiomes. To speed up functional annotations, protein sequences within each family in the database were clustered at 90% sequence identity using CD-HIT (v. 4.8.1) (Huang, Y. et al. Bioinformatics 26, 680-682 (2010)) and the longest sequence from each cluster was kept for the diamond search.
To quantify the abundance of each function per sample, reads were mapped to the corresponding contigs using BWA (v. 0.7.17) (Li, H. & Durbin, R. Bioinformatics 25, 1754-1760 (2009)), and reads mapping to each predicted protein were counted with HTseq (v. 0.11.3) (Anders, S. et al. Bioinformatics 31, 166-169 (2015)). Read counts per RAST functional role were TPM normalized based on the Prokka protein lengths (Zhao, S. et. al. RNA 26, 903-909 (2020)) and expressed in units of mean copy numbers per genome by calculating a normalization factor such that the median abundance of a set of universal-single copy bacterial genes (Creevey, C. J. et al. PLOS One 6, e22099 (2011)) was set to 1 (Manor, O. & Borenstein, E. Genome Biology 16, 53 (2015)). A similar procedure was used to produce a copy-number normalized matrix of functional roles across samples stratified by the bacterial genera of the protein hits used to transfer functional annotations. […]

CC[C@@H](C(=O)O)[C@@H]1O[C@@H]([C@@H](C)[C@H](O)[C@H](C)C(=O)[C@H](CC)[C@H]2O[C@]3(C=C[C@@H](O)[C@]4(CC[C@@](C)([C@H]5CC[C@](O)(CC)[C@H](C)O5)O4)O3)[C@H](C)C[C@@H]2C)[C@@H](C)C[C@@H]1C [narasin]
effect on AMR gene abundance profiles [1]: significantly different AMR gene abundance profiles | AMR gene classes changed compared to controls ([1]; Mann-Whitney U p-value<0.05): enriched for resistance to tetracyclines | total AMR gene abundance compared to control ([1]; RPKM): significant increase | functional processes depleted in cecal microbiome relative to controls (GSEA) [2]: utilization of mucin polysaccharides as well as cell matrix components including sialic acid, N-acetylneuraminate and hyaluronic acid | functional processes enriched in cecal microbiome relative to controls (GSEA) [2]: propanediol utilization, molybdenum-containing cofactor synthesis and CO2 fixation via the Wood-Ljungdahl pathway; also recorded: Tryptophan synthesis, urea degradation, heme and tetrapyrrole biosynthesis, and xylose utilization
